Results from patent publication US9834808B2, “Methods for rapid antibiotic susceptibility testing” (SeLux Diagnostics, Inc., priority 2016, dated 2017).
Values after ≈ are worked out from the molar mass of the structure shown.

Experiments:
[1] = tested on: resistant P. aeruginosa strain, ATCC BAA-2108; experiment: fast-AST MIC determination, resistant strain; type: cell-based; settings: Pseudomonas aeruginosa, ATCCBAA2108, FIG. 7
Method: (§1) Similarly, a culture of Pseudomonas aeruginosa (ATCC strain 27853) was grown using MH broth overnight at 37° C. with vigorous shaking. […] The data shown in FIG. 6 depicts from the 5 minute point after the start of incubation with detection solution. […] The MIC determined by both techniques is the same: 4 μg/ml.
(§2) The MIC for the resistant P. aeruginosa strain, ATCC BAA-2108, was determined similarly. The same 96-well microplate was used for both strains, with 48 wells dedicated to each strain.

[2] = tested on: Pseudomonas aeruginosa (ATCC strain 27853); experiment: fast-AST MIC determination (HRP-conjugated anti-P. aeruginosa antibody signaling agent); type: cell-based; settings: ATCC27853, 3.5 hours incubation, susceptible strain, FIG. 6, FIG. 7
Method: as §1, §2

[3] = tested on: Pseudomonas aeruginosa (ATCC strain 27853); experiment: standard overnight growth, OD600 control MIC determination; type: cell-based; settings: ATCC27853, overnight (>12 hours) incubation, FIG. 6
Method: as §1

[4] = tested on: S. aureus (QC strain 29213); experiment: standard CLSI reference method MIC (fast-AST MICs stated to be similar); type: cell-based, Staphylococcus aureus
Method: Microorganism detection is then performed visually.
S. aureus (QC strain 29213) was cultured under standard sterile conditions in Mueller-Hinton (MH) broth overnight at 37° C. with shaking.
The microplates, each well containing 100 μL, were inoculated with the prepared antimicrobial dilutions and incubated at 37° C. for 3 hours, 45 minutes for determination using the present invention (the “fast-AST” technique). The “fast-AST” microplates were removed from the shaking incubator after 3 hours, 45 minutes and centrifuged for 2.5 minutes at 2500×g in order to pellet. The MH broth was then aspirated and 100 μL of 25 mM PBS was added to each well of both microplates. Then, 10 µL of the chemical moiety (here, Europium-Cryptate formulation) was added to each well (to 20 ng/well) and 10 μL of 0.005% Glutaraldehyde (as the signaling agent) was added to each well. The two microplates were then shaken at 300 rpm for 30 minutes. After, both plates were centrifuged for 2.5 minutes at 2500×g to pellet. The solution was aspirated and a wash of 200 μL PBS-tween was added to each well, followed by a centrifugation to pellet. After aspiration of solution, a second identical wash of 200 μL PBS-tween occurred, followed by a final centrifugation to pellet. 200 μL PBS-tween was added to each well. The plate was then read using time resolved fluorescence on a BioTek H1 plate reader.

[5] = tested on: Escherichia coli (ATCC 11303); experiment: fluorescent nanoparticle signaling agent assay (free signaling agents in filtrate); type: cell-based
Method: (§3) Both Escherichia coli (ATCC 11303) and ampicillin-resistant E. coli (ATCC 39936) were cultured under standard sterile conditions in LB broth at 37° C. Concentrations were determined by measuring absorbance at 600 nm (McFarland), and a concentration of 5×10^5 CFU/ml was set by dilution. Ampicillin was then weighed into sterile water and added in appropriate concentrations to sterile 3 mL microfuge tubes. Bacteria and nanoparticles at a concentration of 8×10^8 nanoparticles/ml were both added to these ampicillin-coated sterile microfuge tubes. The tubes were then capped and placed at 37° C. for 1.5 hours with continuous shaking, after which they were opened and each was passed through a 0.2 μm filter. Next, 100 μL of each filtrate was added to a well of a 96-well plate and 150 μL of a development solution (5% tetramethylammonium hydroxide in ethanol) was added to each well. After 5 minutes the plate was read at 490 nm excitation/530 nm emission in a SpectraMax M2 microplate reader (Molecular Devices).
(§4) An assay for free signaling agents, which are not associated with intact bacteria, was performed after intact bacteria were removed by filtration through a 0.2 μm filter.

[6] = tested on: Escherichia coli (QC strain, ATCC 25922) and clinical resistant E. coli ("Clinical"); experiment: fast-AST with Europium-Cryptate/glutaraldehyde, QC strain compared with clinical strain; type: cell-based; settings: 3 hours 45 minutes incubation, FIG. 16 to FIG. 23
Method: (§5) Both Escherichia coli (QC strain, ATCC 25922) and clinical resistant E. coli (“Clinical”) were cultured under standard sterile conditions in Mueller-Hinton (MH) broth overnight at 37° C. with shaking. The E. coli concentration from the overnight culture was then set to 5×10^5 CFU/ml using the McFarland standard technique for optical density readings at 600 nm. Concurrently, two sterile 96-well microplates were prepared with serial dilutions of a specified antimicrobial (see below) and a no-antimicrobial (saline) control, all in MH broth. The microplates, each well containing 200 μL, were inoculated with the prepared antimicrobial dilutions and incubated at 37° C. for 3 hours, 45 minutes for determination using the present invention (the “fast-AST” technique). The “fast-AST” microplates were removed from the shaking incubator after 3 hours, 45 minutes and centrifuged for 2.5 minutes at 2500 g in order to pellet. The MH broth was then aspirated and 100 μL of water was added to each well of both microplates. Then, 10 μL of the chemical moiety (here, Europium-Cryptate formulation) was added to each well (to 20 ng/well) and 10 μL of 5% Glutaraldehyde (as the signaling agent) was added to each well. The two microplates were then shaken at 300 rpm for 30 minutes. […] The plate was then read using time resolved fluorescence on a BioTek H1 plate reader.

[7] = tested on: ampicillin-resistant E. coli (ATCC 39936); experiment: fluorescent nanoparticle signaling agent assay (free signaling agents in filtrate); type: cell-based, Escherichia coli; settings: 100 μg/ml ampicillin, 1.5 hours, 0.2 μm filtrate; FIG. 41
Method: as §3, §4

[8] = tested on: clinical resistant E. coli ("Clinical"); experiment: fast-AST with Europium-Cryptate/glutaraldehyde, clinical strain; type: cell-based, Escherichia coli; settings: 3 hours 45 minutes incubation, FIG. 17, FIG. 21
Method: as §5

[9] = tested on: clinical S. aureus strain; experiment: CLSI overnight method MIC; settings: Staphylococcus aureus
[10] = standard CLSI reference method, fast-AST MICs similar, FIG. 24 to FIG. 26

C[C@@H](O)[C@H]1C(=O)N2C(C(=O)O)=C(SCCN=CN)C[C@H]12 [imipenem]
MIC [1]: 32 µg/mL (≈ 107 µM)
MIC [2]: 2 µg/mL (≈ 6.68 µM)

CC(C)(O/N=C(\C(=O)N[C@@H]1C(=O)N2C(C(=O)[O-])=C(C[n+]3ccccc3)CS[C@H]12)c1csc(N)n1)C(=O)O [ceftazidime]
MIC [3]: 4 µg/mL (≈ 7.32 µM)
MIC [2]: 4 µg/mL (≈ 7.32 µM)

Teicoplanin
MIC [4, 10]: 0.25 to 1 µg/mL

CC1(C)S[C@@H]2[C@H](NC(=O)[C@H](N)c3ccccc3)C(=O)N2[C@H]1C(=O)O [ampicillin]
fluorescent signal of free signaling agent ([5]; 100 μg/ml ampicillin, 1.5 hours, 0.2 μm filtrate, FIG. 41): significant increase in fluorescence
MIC ([5]; Escherichia coli, ATCC11303, varying ampicillin concentrations, fluorescent nanoparticle assay, FIG. 42): ~15 µg/mL (≈ 42.9 µM)
MICs of QC strain compared with clinical resistant strain [6]: dissimilar MICs
fluorescent signal of free signaling agent [7]: low fluorescent signals
susceptibility call of the clinical strain [8]: resistant

Penicillin
MIC [4, 10]: 0.25 to 2 µg/mL

CN[C@H](CC(C)C)C(=O)N[C@H]1C(=O)N[C@@H](CC(N)=O)C(=O)N[C@H]2C(=O)N[C@H]3C(=O)N[C@H](C(=O)N[C@H](C(=O)O)c4cc(O)cc(O)c4-c4cc3ccc4O)[C@H](O)c3ccc(c(Cl)c3)Oc3cc2cc(c3O[C@@H]2O[C@H](CO)[C@@H](O)[C@H](O)[C@H]2O[C@H]2C[C@](C)(N)[C@H](O)[C@H](C)O2)Oc2ccc(cc2Cl)[C@H]1O [Vancomycin]
MIC [9]: 8 µg/mL (≈ 5.52 µM)
MIC ([4]; Staphylococcus aureus): 0.5 to 2 µg/mL (≈ 0.345 to 1.38 µM)
